According to PubChem BioAssay (NCI):
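Each compound was tested at five concentrations against cells in 96-well plates for 48 hours. TGI marks complete inhibition of growth.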

Columns and labels:
Assay in all cases: NCI-60 cell line screen, 48 h
LXFL 529 NSCLC = system: LXFL 529 NSCLC
XF 498 CNS = system: XF 498 CNS
SK-MEL-5 melanoma = system: SK-MEL-5 melanoma
A498 renal = system: A498 renal
SNB-75 CNS = system: SNB-75 CNS
DMS 273 small cell lung = system: DMS 273 small cell lung
HL-60(TB) leukemia = system: HL-60(TB) leukemia
DMS 114 small cell lung = system: DMS 114 small cell lung
T-47D breast = system: T-47D breast
NCI-H522 lung = system: NCI-H522 lung
SF-268 CNS = system: SF-268 CNS
BT-549 breast = system: BT-549 breast
PC-3 prostate = system: PC-3 prostate
RPMI-8226 leukemia = system: RPMI-8226 leukemia
HT29 colon = system: HT29 colon
MDA-N = system: MDA-N
TK-10 renal = system: TK-10 renal
COLO 205 colon = system: COLO 205 colon
NCI-H226 lung = system: NCI-H226 lung
HOP-18 NSCLC = system: HOP-18 NSCLC
HCC-2998 colon = system: HCC-2998 colon
NCI/ADR-RES ovarian = system: NCI/ADR-RES ovarian
HOP-62 NSCLC = system: HOP-62 NSCLC
786-0 renal = system: 786-0 renal
SF-539 CNS = system: SF-539 CNS
M19-MEL melanoma = system: M19-MEL melanoma
K-562 leukemia = system: K-562 leukemia
RXF 393 renal = system: RXF 393 renal
CAKI-1 renal = system: CAKI-1 renal
HCT-116 colon = system: HCT-116 colon
SNB-19 CNS = system: SNB-19 CNS
SW-620 colon = system: SW-620 colon
OVCAR-3 ovarian = system: OVCAR-3 ovarian
MDA-MB-231 breast = system: MDA-MB-231 breast
UACC-257 melanoma = system: UACC-257 melanoma
NCI-H23 lung = system: NCI-H23 lung
OVCAR-4 ovarian = system: OVCAR-4 ovarian
MCF7 breast = system: MCF7 breast
SN12C renal = system: SN12C renal
UO-31 renal = system: UO-31 renal
HCT-15 colon = system: HCT-15 colon
LOX IMVI melanoma = system: LOX IMVI melanoma
UACC-62 melanoma = system: UACC-62 melanoma
HOP-92 NSCLC = system: HOP-92 NSCLC
MDA-MB-435 = system: MDA-MB-435
OVCAR-5 ovarian = system: OVCAR-5 ovarian
DLD-1 colon = system: DLD-1 colon
SR leukemia = system: SR leukemia
OVCAR-8 ovarian = system: OVCAR-8 ovarian
DU-145 prostate = system: DU-145 prostate
M14 melanoma = system: M14 melanoma
SK-MEL-28 melanoma = system: SK-MEL-28 melanoma
SF-295 CNS = system: SF-295 CNS
SK-OV-3 ovarian = system: SK-OV-3 ovarian
SK-MEL-2 melanoma = system: SK-MEL-2 melanoma
A549 NSCLC = system: A549 NSCLC
EKVX NSCLC = system: EKVX NSCLC
KM12 colon = system: KM12 colon
NCI-H460 lung = system: NCI-H460 lung
ACHN renal = system: ACHN renal
CCRF-CEM leukemia = system: CCRF-CEM leukemia
IGROV1 ovarian = system: IGROV1 ovarian
U251 CNS = system: U251 CNS
HS 578T breast = system: HS 578T breast
MALME-3M melanoma = system: MALME-3M melanoma
MOLT-4 leukemia = system: MOLT-4 leukemia
SNB-78 CNS = system: SNB-78 CNS
KM20L2 colon = system: KM20L2 colon

O=C1C(Cl)=C(c2ccc([N+](=O)[O-])cc2)C(=O)c2c(O)cccc21
TGI (LXFL 529 NSCLC): 0.94 µM | TGI (XF 498 CNS): 1.95 µM | TGI (SK-MEL-5 melanoma): 3.46 µM | TGI (A498 renal): 12.5 µM | TGI (SNB-75 CNS): 7.13 µM | TGI (DMS 273 small cell lung): > 100 µM | TGI (HL-60(TB) leukemia): > 100 µM | TGI (DMS 114 small cell lung): 0.786 µM | TGI (T-47D breast): 5.54 µM | TGI (NCI-H522 lung): 0.545 µM | TGI (SF-268 CNS): 22.4 µM | TGI (BT-549 breast): 4.72 µM | TGI (PC-3 prostate): 7.28 µM | TGI (RPMI-8226 leukemia): > 100 µM | TGI (HT29 colon): 7.37 µM | TGI (MDA-N): 6.53 µM | TGI (TK-10 renal): 10.7 µM | TGI (COLO 205 colon): 3.66 µM | TGI (NCI-H226 lung): 5.74 µM | TGI (HOP-18 NSCLC): 2.04 µM | TGI (HCC-2998 colon): 6.24 µM | TGI (NCI/ADR-RES ovarian): 17.1 µM | TGI (HOP-62 NSCLC): 14.8 µM | TGI (786-0 renal): 8.82 µM | TGI (SF-539 CNS): 1.13 µM | TGI (M19-MEL melanoma): 3.52 µM | TGI (K-562 leukemia): > 100 µM | TGI (RXF 393 renal): 3.49 µM | TGI (CAKI-1 renal): 3.86 µM | TGI (HCT-116 colon): 3.55 µM | TGI (SNB-19 CNS): 5.68 µM | TGI (SW-620 colon): 3.66 µM | TGI (OVCAR-3 ovarian): 3.11 µM | TGI (MDA-MB-231 breast): 3.13 µM | TGI (UACC-257 melanoma): 4.84 µM | TGI (NCI-H23 lung): 4.14 µM | TGI (OVCAR-4 ovarian): 4.62 µM | TGI (MCF7 breast): 14.2 µM | TGI (SN12C renal): 10.7 µM | TGI (UO-31 renal): 3.84 µM | TGI (HCT-15 colon): 3.35 µM | TGI (LOX IMVI melanoma): 3.6 µM | TGI (UACC-62 melanoma): 1.98 µM | TGI (HOP-92 NSCLC): 3.15 µM | TGI (MDA-MB-435): 4.8 µM | TGI (OVCAR-5 ovarian): 5.98 µM | TGI (DLD-1 colon): 2.55 µM | TGI (SR leukemia): > 100 µM | TGI (OVCAR-8 ovarian): 5.78 µM | TGI (DU-145 prostate): 19.4 µM | TGI (M14 melanoma): 3.66 µM | TGI (SK-MEL-28 melanoma): 4.16 µM | TGI (SF-295 CNS): 8.19 µM | TGI (SK-OV-3 ovarian): 8.64 µM | TGI (SK-MEL-2 melanoma): 2.22 µM | TGI (A549 NSCLC): 25 µM | TGI (EKVX NSCLC): 33.4 µM | TGI (KM12 colon): 3.63 µM | TGI (NCI-H460 lung): 6.99 µM | TGI (ACHN renal): 2.36 µM | TGI (CCRF-CEM leukemia): > 100 µM | TGI (IGROV1 ovarian): 4.34 µM | TGI (U251 CNS): 2.22 µM | TGI (HS 578T breast): 4.13 µM | TGI (MALME-3M melanoma): 4.49 µM | TGI (MOLT-4 leukemia): > 100 µM

COC(=O)[C@]1(C)C(OC)=CC(=O)C2C1[C@H]1CCC[C@@H]21 (stereo partly specified)
TGI (LXFL 529 NSCLC): > 100 µM | TGI (XF 498 CNS): > 100 µM | TGI (SK-MEL-5 melanoma): > 100 µM | TGI (A498 renal): > 100 µM | TGI (SNB-75 CNS): > 100 µM | TGI (HL-60(TB) leukemia): > 100 µM | TGI (DMS 114 small cell lung): > 100 µM | TGI (NCI-H522 lung): > 100 µM | TGI (SF-268 CNS): > 100 µM | TGI (RPMI-8226 leukemia): > 100 µM | TGI (HT29 colon): > 100 µM | TGI (TK-10 renal): > 100 µM | TGI (SNB-78 CNS): > 100 µM | TGI (COLO 205 colon): > 100 µM | TGI (NCI-H226 lung): > 100 µM | TGI (HOP-18 NSCLC): > 100 µM | TGI (HCC-2998 colon): > 100 µM | TGI (HOP-62 NSCLC): > 100 µM | TGI (KM20L2 colon): > 100 µM | TGI (786-0 renal): > 100 µM | TGI (SF-539 CNS): > 100 µM | TGI (M19-MEL melanoma): > 100 µM | TGI (K-562 leukemia): > 100 µM | TGI (RXF 393 renal): > 100 µM | TGI (CAKI-1 renal): > 100 µM | TGI (HCT-116 colon): > 100 µM | TGI (SNB-19 CNS): > 100 µM | TGI (OVCAR-3 ovarian): > 100 µM | TGI (UACC-257 melanoma): > 100 µM | TGI (NCI-H23 lung): > 100 µM | TGI (SN12C renal): > 100 µM | TGI (UO-31 renal): > 100 µM | TGI (HCT-15 colon): > 100 µM | TGI (LOX IMVI melanoma): > 100 µM | TGI (UACC-62 melanoma): > 100 µM | TGI (HOP-92 NSCLC): > 100 µM | TGI (OVCAR-5 ovarian): > 100 µM | TGI (DLD-1 colon): > 100 µM | TGI (SR leukemia): > 100 µM | TGI (OVCAR-8 ovarian): > 100 µM | TGI (M14 melanoma): > 100 µM | TGI (SK-MEL-28 melanoma): > 100 µM | TGI (SF-295 CNS): > 100 µM | TGI (SK-OV-3 ovarian): > 100 µM | TGI (SK-MEL-2 melanoma): > 100 µM | TGI (A549 NSCLC): > 100 µM | TGI (EKVX NSCLC): > 100 µM | TGI (KM12 colon): > 100 µM | TGI (NCI-H460 lung): > 100 µM | TGI (ACHN renal): > 100 µM | TGI (CCRF-CEM leukemia): > 100 µM | TGI (IGROV1 ovarian): > 100 µM | TGI (U251 CNS): > 100 µM | TGI (MALME-3M melanoma): > 100 µM | TGI (MOLT-4 leukemia): > 100 µM
